In US9695155B2, “Herbicidal substituted pyrimidinyloxy benzene compounds” (E. I. DU PONT DE NEMOURS AND COMPANY, priority 2013, dated 2017):

What was measured:
ragweed = assay: Test A postemergence; assay type: in vivo, Ambrosia elatior
How it was run: (§1)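 Compounds in non-phytotoxic solvent with surfactant applied as soil spray preemergence, or postemergence to plants 2-10 cm at one- to two-leaf stage, in loam/sand. After approximately 10 days in greenhouse, injury rated visually versus untreated controls, 0 (no effect) to 100 (complete control).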

blackgrass = assay: Test A postemergence; assay type: in vivo, Alopecurus myosuroides
How it was run: as §1

rice = assay: Test C flooded paddy test; assay type: in vivo, Oryza sativa; details: Flood, scale 0 to 100 (0 no effect, 100 complete control), 13 to 15 days
How it was run: (§2)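 Test compounds are applied straight into paddy water held 3 cm above the soil surface, with that flood maintained for the whole test. After 13 to 15 days in the greenhouse, each species is scored visually relative to controls.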

ducksalad = assay: Test C flooded paddy test; assay type: in vivo, Heteranthera limosa; details: Flood, scale 0 to 100 (0 no effect, 100 complete control), 13 to 15 days
How it was run: as §2

barnyardgrass = assay: Test C flooded paddy test; assay type: in vivo, Echinochloa crus-galli; details: Flood, scale 0 to 100 (0 no effect, 100 complete control), 13 to 15 days
How it was run: as §2

[1] = 1000 g ai/ha, 0 to 100 scale, 0 no effect, 100 complete control
[2] = 125 g ai/ha, 0 to 100 scale, 0 no effect, 100 complete control
[3] = 500 g ai/ha, 0 to 100 scale where 0 is no effect and 100 is complete control
[4] = 125 g ai/ha, 0 to 100 scale where 0 is no effect and 100 is complete control
[5] = 31 g ai/ha, 0 to 100 scale, 0 no effect, 100 complete control
[6] = 500 g ai/ha, 0 to 100 scale, 0 no effect, 100 complete control

Compound	Plant response rating, Ragweed (ragweed; [3])	Plant response rating, Blackgrass (blackgrass; [3])	Plant response rating, Rice (rice; 31 g ai/ha)	Plant response rating, Rice (rice; 62 g ai/ha)	Plant response rating, Rice (rice; 125 g ai/ha)	Plant response rating, Rice (rice; 250 g ai/ha)	Plant response rating, Ducksalad (ducksalad; 31 g ai/ha)	Plant response rating, Ducksalad (ducksalad; 62 g ai/ha)	Plant response rating, Ducksalad (ducksalad; 125 g ai/ha)	Plant response rating, Ducksalad (ducksalad; 250 g ai/ha)	Plant response rating, Barnyardgrass (barnyardgrass; 31 g ai/ha)	Plant response rating, Barnyardgrass (barnyardgrass; 62 g ai/ha)	Plant response rating, Barnyardgrass (barnyardgrass; 125 g ai/ha)	Plant response rating, Barnyardgrass (barnyardgrass; 250 g ai/ha)	further results
FCc1cn(-c2c(F)cccc2Oc2ncc(Cl)cn2)nn1 [Compound 154]															Plant response rating, Ragweed (ragweed; [1]): 100; Plant response rating, Blackgrass (blackgrass; [1]): 90
N#Cc1cccc(Oc2ncc(Cl)cn2)c1-n1cc(-n2ccc(C(F)(F)F)n2)cn1 [Compound 284]	20	70													Plant response rating, Ragweed (ragweed; [2]): 20; Plant response rating, Blackgrass (blackgrass; [2]): 30
Cc1cnc(Oc2cccc(C#N)c2-n2cc(I)cn2)nc1 [Compound 136]	100	100													Ragweed plant response rating (ragweed; [4]): 50; Blackgrass plant response rating (blackgrass; [4]): 20
Fc1cccc(Oc2ncc(Cl)cn2)c1-n1cc(OCC(F)(F)F)cn1 [Compound 270]			0	0	0	30	20	60	80	95	0	30	45	60	Plant response rating, Ragweed (ragweed; [5]): 0; Plant response rating, Ragweed (ragweed; [2]): 20; Plant response rating, Blackgrass (blackgrass; [5]): 10; Plant response rating, Blackgrass (blackgrass; [2]): 40
N#Cc1cccc(Oc2ncc(Cl)cn2)c1-n1cnc(C(F)(F)F)c1 [Compound 252, 3-[(5-chloro-2-pyrimidinyl)oxy]-2-[4-(trifluoromethyl)-1H-imidazol-1-yl]benzonitrile]	90	100													Plant response rating, Ragweed (ragweed; [5]): 20; Plant response rating, Ragweed (ragweed; [2]): 70; Plant response rating, Blackgrass (blackgrass; [5]): 10; Plant response rating, Blackgrass (blackgrass; [2]): 60
FCc1cccc(Oc2ncc(Br)cn2)c1-n1cc(C(F)(F)F)cn1 [Compound 120]			0	0	15	60	0	40	80	90	0	0	60	85	Plant response rating, Ragweed (ragweed; [5]): 30; Plant response rating, Blackgrass (blackgrass; [5]): 60; Plant response rating, Blackgrass (blackgrass; [4]): 80
FC(F)(F)Sc1cnn(-c2ccccc2Oc2ncc(Cl)cn2)c1 [Compound 132, 5-chloro-2-[2-[4-(trifluoromethylthio)-1H-pyrazol-1-yl]phenoxy]pyrimidine]	30	90													Ragweed plant response rating (ragweed; [4]): 10; Blackgrass plant response rating (blackgrass; [4]): 60
Clc1cnc(Oc2ccccc2-n2cc(Cl)cn2)nc1 [Compound 3]			0	0	0	0	0	50	70	85	0	0	0	0	
Clc1cnc(Oc2cccc(Br)c2-n2cc(Br)nn2)nc1 [Compound 129]	90	90													Ragweed plant response rating (ragweed; [4]): 80; Blackgrass plant response rating (blackgrass; [4]): 70
Clc1cnc(Oc2cccc(Br)c2-n2cc(Br)cn2)nc1 [Compound 65]			0	0	0	0	0	30	85	85	0	0	0	0	
N#Cc1cnn(-c2c(Oc3ncc(Cl)cn3)cccc2C(F)F)c1 [Compound 236]			0	0	10	20	0	40	80	90	0	0	0	20	
FCc1cccc(Oc2ncc(Cl)cn2)c1-n1cc(Br)cn1 [Compound 83]	80														Plant response rating, Ragweed (ragweed; [4]): 70; Plant response rating, Blackgrass (blackgrass; [4]): 100; Plant response rating, Blackgrass (blackgrass; [6]): 100
CCOc1cn(-c2c(Br)cccc2Oc2ncc(Cl)cn2)nn1 [Compound 84]	90														Plant response rating, Ragweed (ragweed; [4]): 50; Plant response rating, Blackgrass (blackgrass; [4]): 80; Plant response rating, Blackgrass (blackgrass; [6]): 100
FCc1cccc(Oc2ncc(F)cn2)c1-n1cc(C(F)(F)F)cn1 [Compound 118]															Plant response rating, Ragweed (ragweed; [5]): 70; Plant response rating, Blackgrass (blackgrass; [5]): 60; Plant response rating, Blackgrass (blackgrass; [4]): 90
Fc1cccc(Oc2ncc(Cl)cn2)c1-n1cc(C2CC2)nn1 [Compound 155]															Plant response rating, Ragweed (ragweed; [1]): 100; Plant response rating, Blackgrass (blackgrass; [1]): 100
CCCOc1cnn(-c2c(C#N)cccc2Oc2ncc(Cl)cn2)c1 [Compound 150]	60	100	0	0	0	0	0	40	70	75	0	0	0	0	Ragweed plant response rating (ragweed; [4]): 20; Blackgrass plant response rating (blackgrass; [4]): 100
N#Cc1cccc(Oc2ncc(F)cn2)c1-n1cc(Br)cn1 [Compound 62]			15	15	15	25	30	70	85	100	0	0	0	40	
COc1cnn(-c2c(C#N)cccc2Oc2ncc(Cl)cn2)c1 [Compound 137]	100	90													Ragweed plant response rating (ragweed; [4]): 20; Blackgrass plant response rating (blackgrass; [4]): 20
